Each structure is given as a SMILES string.

The assay concerns PPAR γ. It counts as cell-based.

Turning to `CC1=CC(=O)CC(C)(C)C1(O)/C=C/C(C)=C\C(=O)O` (single isomer, unassigned; (-)) [(−) ABA], the “concentration inducing maximal PPAR γ activation” value (1.25-10 μM tested, 20 hours) is 2.5 µM. Besides, for the setting “RAW 264.7, 20 hours”, the “PPAR γ activation (relative luciferase activity)” value was “activated PPAR γ to a similar degree”.
